Test system: amyloid precursor protein (APP)
Assay: APP protein expression in neuronal primary cultures (Western blot)
Type: cell-based
Details: hippocampal neurons, 100 μM, 18 h
Procedure: FIG. 8. Plots illustrating the effect of Aftin-5 on APP protein expression in neuronal primary cultures. Culture medium of hippocampal neurons was replaced by incubation medium containing Aftin-5 (100 μM) or vehicle (0.1% DMSO). 18 h later, APP protein in lysate was quantified by Western blotting with anti-APP polyclonal antibody (Millipore). The Western blots were quantified by densitometric analysis. Relative APP protein expression was expressed (Aftin-5) as comparison with the control condition (vehicle; Ctrl). Data expressed as means+/−SEM from one experiment with n=5 wells/condition.
Hippocampi and cortex were dissected in HBSS containing 5 mM glucose (dissection medium). […] Cells were counted and seeded at a density of 22,000 per cm^2 for hippocampal neurons and 10^5 per cm^2 for cortical neurons into 24 wells culture plates (Costar) in plating medium (DMEM medium containing 10% heat-inactivated horse serum (Life Technologies)). […]
Cells were lysed in freshly prepared lysis buffer containing in mM: Tris-HCl 50, EDTA 2, EGTA 2, NaCl 100, SDS 0.2%, Triton X-100 1%, proteases inhibitors (Roche Protease Inhibitor Cocktail #04693116001), phosphatases inhibitors (in mM: ammonium molybdate 0.1, β-glycerophosphate 20, NaF 50, Na-pyrophosphate 10, Orthovanadate 1). Protein concentration was measured by the Bradford assay and Laemmli buffer was added to each lysate. […]

In the case of `CC[C@H](CO)Nc1nc(N(C)c2ccccc2)c2ncn(C(C)C)c2n1` [Aftin-5], the “level of APP” value is reported as “does not change”.

Source: patent US11472807B2, “Purine derivatives for use as medicament and for use in treating neurodegenerative or neuro-inflammatory disorders” (COMMISSARIAT À L'ENERGIE ATOMIQUE ET AUX ENERGIES …, priority 2017, dated 2022)
